The nature of series [1]: Prodrug stability assay in bio-relevant media (FaSSIF with Pancreatin), GI Tract stability. Type of series: in vitro ADME. The conditions noted are these: HPLC peak area of prodrug at 5 h divided by area at 0 h; 0.5 mg/mL Pancreatin in FaSSIF, 37° C. On the procedure: The following assay was employed to evaluate the stability of the prodrugs in simulated gastrointestinal tract conditions. Preparation of fasted state simulated intestinal fluid (FaSSIF) using Phares SIF Powder was carried out according to protocols from Phare Drug Delivery AG (Baselland, Switzerland). For sample preparation, 10 μL stock solutions (10 mM) of prodrug substance in DMSO was added to 990 μL of 0.5 mg/mL Pancreatin solution (Fisher CAS#8049-47-6) in FaSSIF. Two samples were prepared for each compound. If the sample was a clear solution, it was directly analyzed by HPLC. If the sample was not clear, the sample was diluted with 100% ACN, maintained at 37° C. and observed 5 h later. If the sample was clear, HPLC analysis was directly performed. If the sample was still not clear, the sample was diluted with 100% ACN and assayed by HPLC. All the samples were vortexed for 3 min and observed before injection. For the diluted samples, the area is multiplied by a factor when the data is analyzed. The analysis was carried out with an Agilent 1100 series HPLC with autosampler. The column was usually a Poroshell 120 EC-C18, 4.6×50 mm, 2.7 μm. The flow rate was 1.8 mL/min, and the injection volume was 5 or 10 μL. UV detection was in the range 210-400 nm. The mobile phase consisted of solvent A (water plus 10 mM tetrabutylammonium bromide) and solvent B (acetonitrile) with a gradient of 90% solvent A at 0 min, changing to 95% solvent B over 6 min, maintaining for 1.5 min, then reverting to 90% solvent A over 1.6 min. The HPLC peak area of the prodrug at 5 h was divided by the HPLC peak area of the prodrug at 0 h, to generate the % claimed parent ratio, which is summarized in Table 2. for GI Tract stability.

The next series relates to HIV-1 (H9/IIIB strain). Put plainly: Multiple round HIV-1 infection assay (Viking assay), HIV-1 replication in MT4-GFP cells. Type of series: cell-based. The conditions noted are these: MT4-GFP cells infected with HIV-1 H9/IIIB. Here is the method: The antiviral activity of the tenofovir prodrugs of the Examples herein was assessed in an assay that measures the rate of replication of HIV in cell culture, termed the Viking assay (VIral KINetics in Green cells) and performed as follows. HIV-1 replication was monitored using MT4-gag-GFP clone D3 (hereafter designated MT4-GFP; GFP is green fluorescent protein), which are MT-4 cells modified to harbor a GFP reporter gene, the expression of which is dependent on the HIV-1 expressed proteins tat and rev; see Wang Y-J et al., 2010J Virological Methods 165:230-237. Productive infection of an MT4-GFP cell with HIV-1 results in GFP expression approximately 24 h post-infection. MT4-GFP cells were maintained at 37° C./5% CO2/90% relative humidity in RPMI 1640 supplemented with 10% fetal bovine serum, 100 U/ml penicillin/streptomycin, and 400 μg/ml G418 to maintain the reporter gene. For infections, MT4-GFP cells were placed in the same medium lacking G418 and infected overnight with HIV-1 (H9/IIIB strain) virus at an approximate multiplicity of infection of 0.01 in the same incubation conditions. Cells were then washed and re-suspended in either RPMI 1640 supplemented with 10% or 50% normal human serum (NHS) at 1.6×10^5 cells/mL (10% NHS or 50% NHS, respectively). Compound plates were prepared by dispensing compounds dissolved in DMSO into wells of 384 well poly-D-lysine-coated plates (0.2 μl/well) using an ECHO acoustic dispenser. Each compound was tested in a 10-point serial 3-fold dilution (typical final concentrations: 8.4 μM-0.42 nM). Controls included no inhibitor (DMSO only) and a combination of three antiviral agents (efavirenz, indinavir, and an integrase strand transfer inhibitor at final concentrations of 4 μM each). Cells were added (50 μL/well) to compound plates and the infected cells were maintained at 37′C/5% CO2/90% relative humidity.
Infected cells were quantified at two time points, ˜48 h and ˜72 h post-infection, by counting the number of green cells in each well using an Acumen eX3 scanner. The increase in the number of green cells over ˜24 h period gives the reproductive ratio, R0, which is typically 5-15 and has been shown experimentally to be in logarithmic phase (data not shown). R0 is calculated for each well, and IC50s determined by non-linear 4-parameter curve fitting.

[2] abbreviates: 10% normal human serum, read-out: Viking, IC50 (10% NHS).
[3] abbreviates: 50% normal human serum, read-out: Viking, IC50 (50% NHS).

The IC50 is the point on the concentration scale where inhibition reaches its midpoint.

Each structure is given as a SMILES string. Where two headings read alike, the source gives them in different places.

`CCCCCOC(=O)C(C)(C)NP(=O)(CO[C@H](C)Cn1cnc2c(N)ncnc21)N[C@H](C)C(=O)OCCCC` (single isomer, unassigned) [Example 9B]: the “GI Tract stability” value in series [1] was 73.9%. The IC50 was 1 nM in the series on HIV-1 (H9/IIIB strain) (setting [2]) and 4.2 nM with HIV-1 (H9/IIIB strain) (setting [3]).

`CCCCOC(=O)[C@@H](C)NP(=O)(CO[C@H](C)Cn1cnc2c(N)ncnc21)NC(C)(C)C(=O)OC(C)C` (single isomer, unassigned) [Example 3B]: the “GI Tract stability” value in series [1] is 95.6%. The IC50 stood at 3.8 nM in the series on HIV-1 (H9/IIIB strain) (setting [2]) and 20.5 nM in the series with HIV-1 (H9/IIIB strain) (setting [3]).

`CC(C)COC(=O)C(C)(C)NP(=O)(CO[C@H](C)Cn1cnc2c(N)ncnc21)N[C@H](C)C(=O)OC1CCC1` (single isomer, unassigned) [Example 20A]: the “GI Tract stability” value in series [1] turned out to be 98.1%. Moreover, the IC50 in the series on HIV-1 (H9/IIIB strain) (setting [2]) was 5.9 nM; in the series with HIV-1 (H9/IIIB strain) (setting [3]) it was 17.4 nM.

Consider `CCCCCOC(=O)[C@@H](C)N(C)P(=O)(CO[C@H](C)Cn1cnc2c(N)ncnc21)NC(C)(C)C(=O)OCCCCC` (single isomer, unassigned) [Example 25B], for which the “GI Tract stability” value in series [1] was found to be 94.4%. The half-inhibitory concentration (IC50) in the series on HIV-1 (H9/IIIB strain) (Human immunodeficiency virus 1, IIIB, 10% normal human serum, read-out: Viking, IC50 (10% NHS)) worked out at 3.6 nM; with HIV-1 (H9/IIIB strain) (Human immunodeficiency virus 1, IIIB, 50% normal human serum, read-out: Viking, IC50 (50% NHS)) it was 9.6 nM.

With `C[C@H](Cn1cnc2c(N)ncnc21)OCP(=O)(N[C@H](C)C(=O)OC1CCCC1)NC(C)(C)C(=O)OC1CCC1` (single isomer, unassigned) [Example 28B], the “GI Tract stability” value in series [1] amounted to 90.2%. The IC50 in the series on HIV-1 (H9/IIIB strain) (setting [2]) stood at 2.7 nM; in the series with HIV-1 (H9/IIIB strain) (setting [3]) it was 3.3 nM.

For the molecule `CCCCCOC(=O)C(C)(C)NP(=O)(CO[C@H](C)Cn1cnc2c(N)ncnc21)N[C@H](C)C(=O)OC1CCCC1` (single isomer, unassigned) [Example 24A], in series [1], the “GI Tract stability” value is recorded as 97.8%. Also, the IC50 in the series with HIV-1 (H9/IIIB strain) (setting [2]) was found to be 3.2 nM; in the series with HIV-1 (H9/IIIB strain) (setting [3]), 30.6 nM.

`CCCCCCOC(=O)C(C)(C)NP(=O)(CO[C@H](C)Cn1cnc2c(N)ncnc21)N[C@H](C)C(=O)OCC(C)C` (single isomer, unassigned) [Example 10B]: the “GI Tract stability” value in series [1] was 66.8%. For the same molecule, the values for the half-maximal inhibitory concentration (IC50) with HIV-1 (H9/IIIB strain) (setting [2]) and with HIV-1 (H9/IIIB strain) (setting [3]) were 0.7 nM and 2 nM, respectively.

`CCCCCOC(=O)C(C)(C)NP(=O)(CO[C@H](C)Cn1cnc2c(N)ncnc21)N[C@H](C)C(=O)OC(C)C` (single isomer, unassigned) [Example 17A]: the “GI Tract stability” value in series [1] was determined as 100%. The IC50 in the series with HIV-1 (H9/IIIB strain) (setting [2]) was determined as 15.9 nM; in the series on HIV-1 (H9/IIIB strain) (setting [3]), 78 nM.

Turning to `CCCCCCOC(=O)C(C)(C)NP(=O)(CO[C@H](C)Cn1cnc2c(N)ncnc21)N[C@H](C)C(=O)OC1CCCC1` (single isomer, unassigned) [Example 14B], the “GI Tract stability” value in series [1] is reported as 47.2%. For the same molecule, the IC50 is 0.6 nM in the series with HIV-1 (H9/IIIB strain) (setting [2]) and 2 nM with HIV-1 (H9/IIIB strain) (setting [3]).

Take `CCCCCOC(=O)[C@@H](C)NP(=O)(CO[C@H](C)Cn1cnc2c(N)ncnc21)NC(C)(C)C(=O)OCCCCC` (single isomer, unassigned) [Example 16B]: in series [1], the “GI Tract stability” value was determined as 97.8%. Also, the results for the IC50 in the series with HIV-1 (H9/IIIB strain) (setting [2]) and in the series with HIV-1 (H9/IIIB strain) (setting [3]) were 0.9 nM and 4.2 nM, respectively.

Take `CCCCCCOC(=O)C(C)(C)NP(=O)(CO[C@H](C)Cn1cnc2c(N)ncnc21)N[C@H](C)C(=O)OC(C)C` (single isomer, unassigned) [Example 2B]: the “GI Tract stability” value in series [1] was 94.2%. Moreover, the IC50 in the series on HIV-1 (H9/IIIB strain) (setting [2]) was 1.3 nM; with HIV-1 (H9/IIIB strain) (setting [3]), 5.2 nM.

Regarding `CCCCCOC(=O)C(C)(C)NP(=O)(CO[C@H](C)Cn1cnc2c(N)ncnc21)N[C@H](C)C(=O)OCCCC` (single isomer, unassigned) [Example 9A], in series [1], the “GI Tract stability” value is recorded as 100%. Also, the IC50 in the series on HIV-1 (H9/IIIB strain) (setting [2]) came to 6.1 nM; in the series with HIV-1 (H9/IIIB strain) (setting [3]) it was 19.8 nM.

Take `CC(C)COC(=O)C(C)(C)NP(=O)(CO[C@H](C)Cn1cnc2c(N)ncnc21)N[C@H](C)C(=O)OC1CCC1` (single isomer, unassigned) [Example 20B]: the “GI Tract stability” value in series [1] amounted to 71.0%. The IC50 turned out to be 1.7 nM with HIV-1 (H9/IIIB strain) (setting [2]) and 5.9 nM in the series with HIV-1 (H9/IIIB strain) (setting [3]).

For `CCCCOC(=O)C(C)(C)NP(=O)(CO[C@H](C)Cn1cnc2c(N)ncnc21)N[C@H](C)C(=O)OC1CCC1` (single isomer, unassigned) [Example 23B], in series [1], the “GI Tract stability” value is given as 58.6%. The IC50 in the series with HIV-1 (H9/IIIB strain) (setting [2]) is 6 nM; in the series on HIV-1 (H9/IIIB strain) (setting [3]), 13.6 nM.

The record behind these values is patent US10745428B2, “Antiviral phosphodiamide prodrugs of tenofovir” (Merck Sharp & Dohme Corp., priority 2015, dated 2020).
